Where “and” joins values, the source holds several entries; their conditions need not be identical. Identical values can stand only once.
Assay: Single-dose pharmacokinetics of T+Ai pellet implant (80 mg testosterone + 4 mg anastrozole, subcutaneous)
Conditions: for concentration at 24 h: 24 h post-dose
Procedure: The premenopausal women were aged between 35 and 55 years of age with a BMI range of 20-30 kg/m^2. […] The implant was intended to be left in situ and was expected to be almost completely absorbed within three months following insertion.
A total of 11 subjects were dosed with the implant and included in the safety analysis set. All 11 subjects were included in the pharmacokinetics (PK) analysis set.
(NB: the sample collection time point at 6 hours post-dose was added for the third and subsequent subject and so serum measurements were not determined for the first two subjects as noted below).
Patients seeking treatment with the T+Ai for reduction in high MBD were eligible for the study. Following successful screening, subjects attended the Wellend Health Clinic for dosing. The trial was designed to dose all subjects while in the luteal phase of their menstrual cycle to avoid the highly changing hormonal environment of the follicular phase. Following insertion of the implant, PK blood sampling was carried out for a duration of three months (see below). Briefly, samples were taken repeatedly on the day of dosing, daily during the first week, weekly for the next four weeks and every second week during the last eight weeks of a total sampling period of three months.
The sampling schedule was revised with the addition of one blood sample (at 6 hours post-dose as discussed above), and no adjustment of the timing of existing time points was made. The duration of sampling was not extended.
Following dosing on Day 1, blood samples were taken pre-dose (within one hour of dosing) and at 1, 2, 4, 6, 8 and 12 hours. Participants returned for a blood sample to be taken at 9 am in the morning on Days 2, 3, 4, 5, 8, 15, 22, 29, 43, 57, 71 and 85.

Question: Which results are given for `CC(C)(C#N)c1cc(Cn2cncn2)cc(C(C)(C)C#N)c1` [Anastrozole, 2,2′-[5-(1H-1,2,4-triazol-1-ylmethyl)-1,3-phenylene]bis(2-methylpropanenitrile)]?
Answer: anastrozole level versus conventional full oral dosing (compared with conventional full oral dosing): 5 times lower; Tmax (human, in vivo, sc, 4 mg): 24 to 72 h; concentration at 1008 h (human, in vivo, sc, 4 mg, Measured serum anastrozole, GeoMean, geometric mean (BLQ excluded), 1008 h post-dose): 0.49 ng/mL; concentration at 1344 h (human, in vivo, sc, 4 mg, Measured serum anastrozole, GeoMean, geometric mean (BLQ excluded), 1344 h post-dose): 0.3 ng/mL; concentration at 1680 h (human, in vivo, sc, 4 mg, Measured serum anastrozole, GeoMean, geometric mean (BLQ excluded), 1680 h post-dose): 0.26 ng/mL; concentration at 2016 h (human, in vivo, sc, 4 mg, Measured serum anastrozole, GeoMean, geometric mean (BLQ excluded), 2016 h post-dose): 0.21 ng/mL; concentration at 1 h (human, in vivo, sc, 4 mg, Measured serum anastrozole, GeoMean, geometric mean, 1 h post-dose): 0.35 ng/mL; concentration at 2 h (human, in vivo, sc, 4 mg, Measured serum anastrozole, GeoMean, geometric mean, 2 h post-dose): 0.61 ng/mL; concentration at 4 h (human, in vivo, sc, 4 mg, Measured serum anastrozole, GeoMean, geometric mean, 4 h post-dose): 1.15 ng/mL; concentration at 6 h (human, in vivo, sc, 4 mg, Measured serum anastrozole, GeoMean, geometric mean, 6 h post-dose): 2.31 ng/mL; concentration at 8 h (human, in vivo, sc, 4 mg, Measured serum anastrozole, GeoMean, geometric mean, 8 h post-dose): 3.23 ng/mL; concentration at 12 h (human, in vivo, sc, 4 mg, Measured serum anastrozole, GeoMean, geometric mean, 12 h post-dose): 3.97 ng/mL; concentration at 24 h (human, in vivo, sc, 4 mg, Measured serum anastrozole, GeoMean, geometric mean): 4.77 ng/mL; concentration at 48 h (human, in vivo, sc, 4 mg, Measured serum anastrozole, GeoMean, geometric mean, 48 h post-dose): 4.98 ng/mL; concentration at 72 h (human, in vivo, sc, 4 mg, Measured serum anastrozole, GeoMean, geometric mean, 72 h post-dose): 4.92 ng/mL; concentration at 96 h (human, in vivo, sc, 4 mg, Measured serum anastrozole, GeoMean, geometric mean, 96 h post-dose): 4.58 ng/mL; concentration at 168 h (human, in vivo, sc, 4 mg, Measured serum anastrozole, GeoMean, geometric mean, 168 h post-dose): 3.5 ng/mL; concentration at 504 h (human, in vivo, sc, 4 mg, Measured serum anastrozole, GeoMean, geometric mean, 504 h post-dose): 1.42 ng/mL; concentration at 24 h (human, in vivo, sc, 4 mg, Measured serum anastrozole, individual subject): 6.08 ng/mL; concentration at 48 h (human, in vivo, sc, 4 mg, Measured serum anastrozole, individual subject, 48 h post-dose): 6.17 ng/mL; concentration at 72 h (human, in vivo, sc, 4 mg, Measured serum anastrozole, individual subject, 72 h post-dose): 4.94 ng/mL; concentration at 96 h (human, in vivo, sc, 4 mg, Measured serum anastrozole, individual subject, 96 h post-dose): 4.36 ng/mL; concentration at 168 h (human, in vivo, sc, 4 mg, Measured serum anastrozole, individual subject, 168 h post-dose): 2.84 ng/mL; concentration at 1 h (human, in vivo, sc, 4 mg, Measured serum anastrozole, mean, 1 h post-dose): 0.38 ng/mL; concentration at 2 h (human, in vivo, sc, 4 mg, Measured serum anastrozole, mean, 2 h post-dose): 0.7 ng/mL; concentration at 4 h (human, in vivo, sc, 4 mg, Measured serum anastrozole, mean, 4 h post-dose): 1.37 ng/mL; concentration at 6 h (human, in vivo, sc, 4 mg, Measured serum anastrozole, mean, 6 h post-dose): 2.58 ng/mL; concentration at 8 h (human, in vivo, sc, 4 mg, Measured serum anastrozole, mean, 8 h post-dose): 3.44 ng/mL; concentration at 12 h (human, in vivo, sc, 4 mg, Measured serum anastrozole, mean, 12 h post-dose): 4.06 ng/mL; concentration at 24 h (human, in vivo, sc, 4 mg, Measured serum anastrozole, mean): 4.84 ng/mL; concentration at 48 h (human, in vivo, sc, 4 mg, Measured serum anastrozole, mean, 48 h post-dose): 5.06 ng/mL; concentration at 72 h (human, in vivo, sc, 4 mg, Measured serum anastrozole, mean, 72 h post-dose): 4.96 ng/mL; concentration at 96 h (human, in vivo, sc, 4 mg, Measured serum anastrozole, mean, 96 h post-dose): 4.62 ng/mL; concentration at 168 h (human, in vivo, sc, 4 mg, Measured serum anastrozole, mean, 168 h post-dose): 3.57 ng/mL; concentration at 504 h (human, in vivo, sc, 4 mg, Measured serum anastrozole, mean, 504 h post-dose): 1.47 ng/mL; concentration at 1008 h (human, in vivo, sc, 4 mg, Measured serum anastrozole, mean, 1008 h post-dose): 0.49 ng/mL; concentration at 1344 h (human, in vivo, sc, 4 mg, Measured serum anastrozole, mean, 1344 h post-dose): 0.22 ng/mL; concentration at 1680 h (human, in vivo, sc, 4 mg, Measured serum anastrozole, mean, 1680 h post-dose): 0.1 ng/mL; concentration at 2016 h (human, in vivo, sc, 4 mg, Measured serum anastrozole, mean, 2016 h post-dose): 0.04 ng/mL; concentration at 1 h (human, in vivo, sc, 4 mg, Measured serum anastrozole, median, 1 h post-dose): 0.32 ng/mL; concentration at 2 h (human, in vivo, sc, 4 mg, Measured serum anastrozole, median, 2 h post-dose): 0.62 ng/mL; concentration at 4 h (human, in vivo, sc, 4 mg, Measured serum anastrozole, median, 4 h post-dose): 1.12 ng/mL; concentration at 6 h (human, in vivo, sc, 4 mg, Measured serum anastrozole, median, 6 h post-dose): 3.08 ng/mL; concentration at 8 h (human, in vivo, sc, 4 mg, Measured serum anastrozole, median, 8 h post-dose): 3.5 ng/mL; concentration at 12 h (human, in vivo, sc, 4 mg, Measured serum anastrozole, median, 12 h post-dose): 4.32 ng/mL; concentration at 24 h (human, in vivo, sc, 4 mg, Measured serum anastrozole, median): 4.96 ng/mL; concentration at 48 h (human, in vivo, sc, 4 mg, Measured serum anastrozole, median, 48 h post-dose): 5.05 ng/mL; concentration at 72 h (human, in vivo, sc, 4 mg, Measured serum anastrozole, median, 72 h post-dose): 4.92 ng/mL; concentration at 96 h (human, in vivo, sc, 4 mg, Measured serum anastrozole, median, 96 h post-dose): 4.6 ng/mL; concentration at 168 h (human, in vivo, sc, 4 mg, Measured serum anastrozole, median, 168 h post-dose): 3.58 ng/mL; concentration at 504 h (human, in vivo, sc, 4 mg, Measured serum anastrozole, median, 504 h post-dose): 1.36 ng/mL; concentration at 1008 h (human, in vivo, sc, 4 mg, Measured serum anastrozole, median, 1008 h post-dose): 0.4 ng/mL; concentration at 1344 h (human, in vivo, sc, 4 mg, Measured serum anastrozole, median, 1344 h post-dose): 0.16 ng/mL; concentration at 2016 h (human, in vivo, sc, 4 mg, plasma anastrozole concentration after 12 weeks, below limit of quantitation in most participants after 12 weeks): < 0.1 ng/mL; Measured serum anastrozole (individual subject, 1 h post-dose, 60 min): 0.215 ng/mL and 0.525 ng/mL and 0.218 ng/mL and 0.515 ng/mL and 0.394 ng/mL and 0.127 ng/mL and 0.855 ng/mL and 0.321 ng/mL and 0.243 ng/mL and 0.751 ng/mL; Measured serum anastrozole (individual subject, 2 h post-dose, 120 min): 0.404 ng/mL and 0.615 ng/mL and 1.30 ng/mL and 0.887 ng/mL and 0.831 ng/mL and 0.306 ng/mL and 1.04 ng/mL and 0.596 ng/mL and 0.509 ng/mL and 0.180 ng/mL and 1.02 ng/mL; Measured serum anastrozole (individual subject, 4 h post-dose, 240 min): 1.03 ng/mL and 2.97 ng/mL and 2.23 ng/mL and 0.902 ng/mL and 1.50 ng/mL and 0.582 ng/mL and 2.11 ng/mL; Measured serum anastrozole (individual subject, 6 h post-dose, 360 min): 3.11 ng/mL and 3.07 ng/mL and 3.42 ng/mL (2×) and 1.63 ng/mL and 3.21 ng/mL and 1.62 ng/mL and 0.651 ng/mL; Measured serum anastrozole (individual subject, 8 h post-dose, 480 min): 4.28 ng/mL and 3.41 ng/mL and 3.48 ng/mL and 4.75 ng/mL and 4.16 ng/mL and 2.18 ng/mL and 3.66 ng/mL and 3.33 ng/mL and 1.06 ng/mL and 3.99 ng/mL; Measured serum anastrozole (individual subject, 12 h post-dose, 720 min): 5.13 ng/mL and 3.27 ng/mL and 4.42 ng/mL and 3.87 ng/mL and 3.32 ng/mL and 4.86 ng/mL and 4.18 ng/mL and 2.25 ng/mL; Measured serum anastrozole (individual subject, 48 h post-dose, 2880 min): 3.95 ng/mL and 5.85 ng/mL and 5.58 ng/mL and 6.07 ng/mL and 4.85 ng/mL and 3.31 ng/mL and 5.28 ng/mL; Measured serum anastrozole (individual subject, 72 h post-dose, 4320 min): 4.72 ng/mL and 5.16 ng/mL and 5.00 ng/mL and 6.29 ng/mL and 5.68 ng/mL and 4.76 ng/mL and 3.66 ng/mL and 4.85 ng/mL; Measured serum anastrozole (individual subject, 96 h post-dose, 5760 min): 4.12 ng/mL and 4.67 ng/mL and 5.17 ng/mL; Measured serum anastrozole (individual subject, 168 h post-dose, 10080 min): 4.35 ng/mL; Measured serum anastrozole (individual subject, 504 h post-dose, 30240 min): 1.70 ng/mL and 1.83 ng/mL and 1.59 ng/mL; Measured serum anastrozole (individual subject, 1008 h post-dose, 60480 min): 0.332 ng/mL and 0.665 ng/mL and 0.505 ng/mL and 0.624 ng/mL; Measured serum anastrozole (individual subject, 1344 h post-dose, 80640 min): 0.144 ng/mL and 0.279 ng/mL; Measured serum anastrozole (individual subject, 1680 h post-dose, 100800 min): 0.143 ng/mL; Measured serum anastrozole, mean (mean, pre-dose): 0.00 ng/mL; Measured serum anastrozole, median (median, pre-dose): 0.00 ng/mL; average Cmax, plasma anastrozole (plasma): 5.30 ng/mL; average terminal half-life, anastrozole (plasma): 336 h; median Tmax for plasma anastrozole (plasma, post-dose): 48 h

Reference: patent publication US20260315494A1, “TREATMENT OF BREAST TISSUE” (Havah Therapeutics Pty Ltd, priority 2023, published 2026)
